Entries after “also recorded” stand apart in the source; their conditions may differ.
Experiments:
SCD1 [1] = target: T1, SCD1 (Homo sapiens, UniProt O00767); assay: C18:1 labeling from U-13C-glucose and U-13C-glutamine under SCD1 inhibition, A549 cells; format: cell-based; conditions: 200 nM CAY10566, A549 cells
T1 construct: endogenous in cells; host or cells: A549 lung cancer cells (ATCC)
T1 sequence (O00767 1-359): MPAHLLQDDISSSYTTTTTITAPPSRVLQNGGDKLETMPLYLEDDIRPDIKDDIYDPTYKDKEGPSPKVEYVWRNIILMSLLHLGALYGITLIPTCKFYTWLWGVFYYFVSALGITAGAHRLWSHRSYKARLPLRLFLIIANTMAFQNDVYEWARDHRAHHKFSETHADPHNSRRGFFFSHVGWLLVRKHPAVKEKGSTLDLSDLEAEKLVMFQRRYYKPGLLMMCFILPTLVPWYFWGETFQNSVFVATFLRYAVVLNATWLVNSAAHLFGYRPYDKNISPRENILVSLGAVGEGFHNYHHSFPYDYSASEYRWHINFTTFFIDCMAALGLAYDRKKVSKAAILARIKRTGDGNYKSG
Source text: (§1) Cell lines were from ATCC with the following exceptions: the immortalized Baby Mouse Kidney (iBMK) cell lines were derived from primary kidney epithelial cells from Bax^−/−/Bak^−/− mice, immortalized by E1A and dominant-negative p53 expression, and transfected with control vector, human oncogenic H-Ras^V12G, or myrAKT (31); and the Human Pancreatic Nestin Expressing (HPNE) cells (a generous gift of A. Maitra) were developed from human pancreatic duct by transduction with a retroviral expression vector (pBABEpuro) containing the hTERT gene and transfected with control vector or human oncogenic K-Ras^G12D. Cell lines were routinely passaged in Dulbecco's Modified Eagle Medium (DMEM, Mediatech) with 25 mM glucose and 4 mM glutamine and supplemented with 10% Fetal Bovine Serum (HyClone), 25 IU/ml penicillin, and 25 μg/ml streptomycin (MP Biomedicals) and split at 80% confluence. Metabolic experiments were performed in 6 cm culture dishes with 3 ml of DMEM containing 10% dialyzed serum (DFBS, HyClone). For isotope labeling, glucose and glutamine were replaced with their U-^13C-labeled forms (Cambridge Isotope Labs). Hypoxia experiments were performed in a hypoxic glove box (0.5% or 1% O2 as indicated, 5% CO2 and 94-94.5% N2, 37° C.) (Coy Laboratory Products). Cells and media were equilibrated in low oxygen overnight before experiment initiation. CAY10566 was from Cayman Chemical. […]

SCD1 [2] = target: T2, SCD1 (Mus musculus, UniProt P13516); assay: C18:1 labeling from U-13C-glucose and U-13C-glutamine under SCD1 inhibition, iBMK cells; format: cell-based; conditions: 200 nM CAY10566, iBMK-H-Ras^V12G and iBMK-myrAkt cells, 48 h
T2 construct: endogenous in cells; host or cells: iBMK cells transfected with human H-Ras V12G or myrAkt (SCD1 itself not transfected)
T2 sequence (P13516 1-355): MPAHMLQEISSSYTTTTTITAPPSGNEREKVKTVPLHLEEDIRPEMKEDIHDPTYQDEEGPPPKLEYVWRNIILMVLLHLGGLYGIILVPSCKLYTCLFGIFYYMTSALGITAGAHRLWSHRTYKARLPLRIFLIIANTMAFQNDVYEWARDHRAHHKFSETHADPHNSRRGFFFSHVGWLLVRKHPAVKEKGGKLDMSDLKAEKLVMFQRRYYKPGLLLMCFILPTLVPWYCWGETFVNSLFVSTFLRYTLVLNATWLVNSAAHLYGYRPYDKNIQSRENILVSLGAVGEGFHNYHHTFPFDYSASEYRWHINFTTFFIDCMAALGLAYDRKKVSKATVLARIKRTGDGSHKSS
Source text: as §1

A549 lung cancer cells = assay: Cell growth with SCD1 inhibitor (xCELLigence real-time proliferation / culture dishes); format: cell-based, human
Source text: (§2) Cell lines were from ATCC with the following exceptions: the immortalized Baby Mouse Kidney (iBMK) cell lines were derived from primary kidney epithelial cells from Bax^−/−/Bak^−/− mice, immortalized by E1A and dominant-negative p53 expression, and transfected with control vector, human oncogenic H-Ras^V12G, or myrAKT (31); and the Human Pancreatic Nestin Expressing (HPNE) cells (a generous gift of A. Maitra) were developed from human pancreatic duct by transduction with a retroviral expression vector (pBABEpuro) containing the hTERT gene and transfected with control vector or human oncogenic K-Ras^G12D. Cell lines were routinely passaged in Dulbecco's Modified Eagle Medium (DMEM, Mediatech) with 25 mM glucose and 4 mM glutamine and supplemented with 10% Fetal Bovine Serum (HyClone), 25 IU/ml penicillin, and 25 μg/ml streptomycin (MP Biomedicals) and split at 80% confluence. Metabolic experiments were performed in 6 cm culture dishes with 3 ml of DMEM containing 10% dialyzed serum (DFBS, HyClone). For isotope labeling, glucose and glutamine were replaced with their U-^13C-labeled forms (Cambridge Isotope Labs). Hypoxia experiments were performed in a hypoxic glove box (0.5% or 1% O2 as indicated, 5% CO2 and 94-94.5% N2, 37° C.) (Coy Laboratory Products). Cells and media were equilibrated in low oxygen overnight before experiment initiation. CAY10566 was from Cayman Chemical. Lipid supplements were from Avanti Polar Lipids. LPC(18:1) and LPC(18:0) were dissolved in phosphate buffered saline (PBS); MG(18:1) in methanol; and PC(16:0-18:1) in 1:9 chloroform:methanol. Organic solvents were <0.1% v/v in the medium.
(§3) Cell proliferation was determined with either Packed Cell Volume tubes (PCV, Techno Plastic Products AG) or with the xCELLigence system (Roche). Animal studies were performed following the guidelines for proper and humane use of animals in research under an IACUC-approved protocol. […] Xenograft tumors were measured biweekly and tumor volume calculated as volume=(length×width^2×π/6).

iBMK-H-Ras^V12G cells [3] = assay: Cell growth with SCD1 inhibitor; format: cell-based, mouse; conditions: 10% serum, for 3 population doublings
Source text: as §1, with “Labs).” for “Labs). Hypoxia experiments were performed in a hypoxic glove box (0.5% or 1% O2 as indicated, 5% CO2 and 94-94.5% N2, 37° C.) (Coy Laboratory Products). Cells and media were equilibrated in low oxygen overnight before experiment initiation. CAY10566 was from Cayman Chemical.”
(§4) Cell proliferation was determined with either Packed Cell Volume tubes (PCV, Techno Plastic Products AG) or with the xCELLigence system (Roche). […] Xenograft tumors were measured biweekly and tumor volume calculated as volume=(length×width^2×π/6).

iBMK-myrAkt cells [4] = assay: Cell growth with SCD1 inhibitor; format: cell-based, mouse; conditions: 10% serum
Source text: as §1, with “Labs).” for “Labs). Hypoxia experiments were performed in a hypoxic glove box (0.5% or 1% O2 as indicated, 5% CO2 and 94-94.5% N2, 37° C.) (Coy Laboratory Products). Cells and media were equilibrated in low oxygen overnight before experiment initiation. CAY10566 was from Cayman Chemical.”
as §4

iBMK-H-Ras^V12G tumors = assay: Allograft tumor growth in athymic nude mice; format: in vivo, mouse; conditions: Ras-driven tumors, 2.5 mg/kg CAY10566 p.o. BID, day 13 or 14 post therapy
Protocol: (§5) Cell proliferation was determined with either Packed Cell Volume tubes (PCV, Techno Plastic Products AG) or with the xCELLigence system (Roche). Animal studies were performed following the guidelines for proper and humane use of animals in research under an IACUC-approved protocol. To generate allografts, 1×10^7 iBMK cells were implanted in matrigel (BD Biosciences) into nu/nu athymic female mice. After establishment of palpable tumors, mice were randomized to receive 2.5 mg/kg BID CAY10566 p.o. in 0.5% methylcellulose or vehicle control. Xenograft tumors were measured biweekly and tumor volume calculated as volume=(length×width^2×π/6).

iBMK-myrAkt tumors = assay: Allograft tumor growth in athymic nude mice; format: in vivo, mouse; conditions: Akt-driven tumors, 2.5 mg/kg CAY10566 p.o. BID, day 13 or 14 post therapy
Protocol: as §5

iBMK cells = assay: Lipid composition and C18:1 import after LPC(18:1) supplementation; format: cell-based, mouse; conditions: 20 μM LPC(18:1)
Source text: as §1

iBMK-H-Ras^V12G cells [5] = assay: Packed cell volume with SCD1 inhibitor plus supplemented lipids; format: cell-based, mouse; conditions: 200 nM SCDi (CAY10566), 20 μM lipid, 72 h
Source text: as §2, §3

iBMK-myrAkt cells [6] = assay: as above; format: cell-based, mouse; conditions: 200 nM SCDi (CAY10566), 20 μM lipid, 72 h
Source text: as §2, §3

A549 cells = assay: as above; format: cell-based, human; conditions: 200 nM SCDi (CAY10566), 20 μM lipid, 72 h
Source text: as §1, with “Labs).” for “Labs). Hypoxia experiments were performed in a hypoxic glove box (0.5% or 1% O2 as indicated, 5% CO2 and 94-94.5% N2, 37° C.) (Coy Laboratory Products). Cells and media were equilibrated in low oxygen overnight before experiment initiation. CAY10566 was from Cayman Chemical.”
as §4

cells = assay: Rescue of cells from SCD1 inhibition (discussion summary); format: cell-based; conditions: cell line not stated

For `Cc1nnc(-c2ccc(N3CCC(Oc4cc(F)ccc4Cl)CC3)nn2)o1` [CAY10566], the “C18:1 labeling from U-13C-glucose and U-13C-glutamine” value (SCD1 [1]) was “completely blocked; also recorded: blocks C18:1 labeling”, the “C18:1 labeling / SCD1 block” value (SCD1 [2]) was “fully blocked; also recorded: sufficient to fully block C18:1 labeling” and the “cell growth in real-time cell proliferation assay” value (A549 lung cancer cells; 200 nM CAY10566, 10% serum) was “did not impair cell growth”. The “cell growth in standard cell culture conditions” value (A549 lung cancer cells; 200 nM CAY10566, first 48 h of growth) was “did not impair cell growth”, the “cell growth, sensitivity to SCD1 inhibition” value (A549 lung cancer cells; SCD1 inhibitor, 2% serum) was “sensitive” and the cell growth (iBMK-H-Ras^V12G cells [3]) was “grew almost normally”. For the same compound, the cell growth (iBMK-myrAkt cells [4]) was “severely impaired”, the “mean tumor volume relative to untreated tumors” value (iBMK-H-Ras^V12G tumors) was 0.67+/−0.05 and the “mean tumor volume relative to untreated tumors” value (iBMK-myrAkt tumors) was 0.51+/−0.04.

For `CCCCCCCC/C=C\CCCCCCCC(=O)OC[C@@H](O)COP(=O)([O-])OCC[N+](C)(C)C` [LPC(18:1), oleoyl lysophosphatidylcholine], the “desaturation index (C18:1/C18:0)” value (iBMK cells; 72 h, iBMK-H-Ras^V12G cells) was “increased significantly and selectively”, the “fraction of C18:1 derived from import” value (iBMK cells; both iBMK-H-Ras^V12G and iBMK-myrAkt cells) was “increasing” and the “proliferation / cell growth during SCD1 inhibition with supplemented lipid” value (iBMK-H-Ras^V12G cells [5]) was “fully restored proliferation”. For the same compound, the “proliferation during SCD1 inhibition with supplemented lipid” value (iBMK-myrAkt cells [6]) was “only partially”, the “proliferation during SCD1 inhibition with supplemented lipid” value (A549 cells) was “complete rescue” and the “rescue of cells from SCD1 inhibition” value (cells) was “rescues cells from SCD1 inhibition”.

For oleolyl-monoacylglycerol [MG(18:1)], the “proliferation / cell growth during SCD1 inhibition with supplemented lipid” value (iBMK-H-Ras^V12G cells [5]) was “restored cell proliferation”.

— patent publication US20160120832A1, “LIPID SCAVENGING IN RAS CANCERS” (MEMORIAL SLOAN KETTERING CANCER CENTER, priority 2013, published 2016)
